Measurements published in US6525001B1, “Substituted pyrimidine and pyridine herbicides” (Mid-American Commercialization Corporation, priority 1997, dated 2003).

Legend:
Format in all cases: in vivo
Set-up in all cases: key: 0 is no effect; 10 is complete control
[1] = system: bedstraw (Galium aparine); assay: Test B pre-/postemergence
Source text: (§1) Seeds of bedstraw (Galium aparine), blackgrass (Alopecurus myosuroides), broadleaf signalgrass (Brachiaria decumbens), cocklebur (Xanthium strumarium), corn (Zea mays), crabgrass (Digitaria sanguinalis), giant foxtail (Setaria faberii), lambsquarters (Chenopodium album), momingglory (Ipomoea hederacea), pigweed (Amaranthus retroflexus), rape (Brassica napus), soybean (Glycine max), sugar beet (Beta vulgaris), velvetleaf (Abutilon theophrasti), wheat (Triticum aestivum), wild oat (Avena fatua) and purple nutsedge (Cyperus rotundus) tubers were planted and treated preemergence with test chemicals formulated in a non-phytotoxic solvent mixture which included a surfactant.
(§2) At the same time, these crop and weed species were also treated with postemergence applications of test chemicals formulated in the same manner. Plants ranged in height from 2 to 18 cm (1- to 4-leaf stage) for postemergence treatments. Plant species in the flood test consisted of rice (Oryza sativa), smallflower flatsedge (Cyperus difformis), duck salad (Heteranthera limosa) and bamyardgrass (Echinochloa crus-galli) grown to the 2-leaf stage for testing. Treated plants and controls were maintained in a greenhouse for twelve to sixteen days, after which all species were compared to controls and visually evaluated. Plant response ratings, summarized in Table B, are based on a scale of 0 to 10 where 0 is no effect and 10 is complete control. A dash (−) response means no test result.

[2] = system: blackgrass (Alopecurus myosuroides); assay: Test B pre-/postemergence
Source text: as §1, §2

[3] = system: broadleaf signalgrass (Brachiaria decumbens); assay: Test B pre-/postemergence
Source text: as §1, §2

[4] = system: cocklebur (Xanthium strumarium); assay: Test B pre-/postemergence
Source text: as §1, §2

corn (Zea mays) = assay: Test B pre-/postemergence
Source text: as §1, §2

[5] = system: crabgrass (Digitaria sanguinalis); assay: Test B pre-/postemergence
Source text: as §1, §2

[6] = system: giant foxtail (Setaria faberii); assay: Test B pre-/postemergence
Source text: as §1, §2

[7] = system: momingglory (Ipomoea hederacea); assay: Test B pre-/postemergence
Source text: as §1, §2

[8] = system: pigweed (Amaranthus retroflexus); assay: Test B pre-/postemergence
Source text: as §1, §2

[9] = system: purple nutsedge (Cyperus rotundus); assay: Test B pre-/postemergence
Source text: as §1, §2

rape (Brassica napus) = assay: Test B pre-/postemergence
Source text: as §1, §2

soybean (Glycine max) = assay: Test B pre-/postemergence
Source text: as §1, §2

[10] = system: sugar beet (Beta vulgaris); assay: Test B pre-/postemergence
Source text: as §1, §2

[11] = system: velvetleaf (Abutilon theophrasti); assay: Test B pre-/postemergence
Source text: as §1, §2

[12] = system: wheat (Triticum aestivum); assay: Test B pre-/postemergence
Source text: as §1, §2

wild oat (Avena fatua) = assay: Test B pre-/postemergence
Source text: as §1, §2

[13] = system: bamyardgrass (Echinochloa crus-galli); assay: Test B flood test
Procedure, shortened: (§3)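 Flood test on plants grown to the 2-leaf stage; treated plants kept in greenhouse twelve to sixteen days, then visually rated against controls on a 0 (no effect) to 10 (complete control) scale.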

[14] = system: duck salad (Heteranthera limosa); assay: Test B flood test
Procedure, shortened: as §3

rice (Oryza sativa) = assay: Test B flood test
Procedure, shortened: as §3

[15] = system: smallflower flatsedge (Cyperus difformis); assay: Test B flood test
Procedure, shortened: as §3

[16] = Rate 62 g/ha, Postemergence (flood test)
[17] = Rate 125 g/ha, Postemergence, flood test
[18] = Rate 250 g/ha, Postemergence (flood test species)

Cc1cnc(-c2cccc(C(F)(F)F)c2)nc1Cc1cccc(C(F)(F)F)c1 [Compound 24]
Plant response rating, Bedstraw ([1]; Rate 62 g/ha, Postemergence): 4
Bedstraw plant response rating ([1]; Rate 62 g/ha, Preemergence): 0
Plant response rating, Bedstraw ([1]; Rate 125 g/ha, Postemergence): 10
Bedstraw plant response rating ([1]; Rate 125 g/ha, Preemergence): 1
Plant response rating, Bedstraw ([1]; Rate 250 g/ha, Postemergence): 10
Plant response rating, Bedstraw ([1]; Rate 250 g/ha, Preemergence): 1
Plant response rating, Blackgrass ([2]; Rate 62 g/ha, Postemergence): 2
Blackgrass plant response rating ([2]; Rate 62 g/ha, Preemergence): 0
Plant response rating, Blackgrass ([2]; Rate 125 g/ha, Postemergence): 3
Blackgrass plant response rating ([2]; Rate 125 g/ha, Preemergence): 2
Plant response rating, Blackgrass ([2]; Rate 250 g/ha, Postemergence): 4
Plant response rating, Blackgrass ([2]; Rate 250 g/ha, Preemergence): 3
Plant response rating, B. signalgrass ([3]; Rate 62 g/ha, Postemergence): 2
B. signalgrass plant response rating ([3]; Rate 62 g/ha, Preemergence): 2
Plant response rating, B. signalgrass ([3]; Rate 125 g/ha, Postemergence): 2
B. signalgrass plant response rating ([3]; Rate 125 g/ha, Preemergence): 3
Plant response rating, B. signalgrass ([3]; Rate 250 g/ha, Postemergence): 3
Plant response rating, B. signalgrass ([3]; Rate 250 g/ha, Preemergence): 6
Plant response rating, Cocklebur ([4]; Rate 62 g/ha, Postemergence): 9
Cocklebur plant response rating ([4]; Rate 62 g/ha, Preemergence): 0
Plant response rating, Cocklebur ([4]; Rate 125 g/ha, Postemergence): 9
Cocklebur plant response rating ([4]; Rate 125 g/ha, Preemergence): 0
Plant response rating, Cocklebur ([4]; Rate 250 g/ha, Postemergence): 10
Plant response rating, Cocklebur ([4]; Rate 250 g/ha, Preemergence): 0
Plant response rating, Corn (corn (Zea mays); Rate 62 g/ha, Postemergence): 1
Corn plant response rating (corn (Zea mays); Rate 62 g/ha, Preemergence): 0
Plant response rating, Corn (corn (Zea mays); Rate 125 g/ha, Postemergence): 1
Corn plant response rating (corn (Zea mays); Rate 125 g/ha, Preemergence): 0
Plant response rating, Corn (corn (Zea mays); Rate 250 g/ha, Postemergence): 1
Plant response rating, Corn (corn (Zea mays); Rate 250 g/ha, Preemergence): 0
Plant response rating, Crabgrass ([5]; Rate 62 g/ha, Postemergence): 8
Crabgrass plant response rating ([5]; Rate 62 g/ha, Preemergence): 1
Plant response rating, Crabgrass ([5]; Rate 125 g/ha, Postemergence): 8
Crabgrass plant response rating ([5]; Rate 125 g/ha, Preemergence): 3
Plant response rating, Crabgrass ([5]; Rate 250 g/ha, Postemergence): 8
Plant response rating, Crabgrass ([5]; Rate 250 g/ha, Preemergence): 1
Plant response rating, Giant foxtail ([6]; Rate 62 g/ha, Postemergence): 2
Giant foxtail plant response rating ([6]; Rate 62 g/ha, Preemergence): 0
Plant response rating, Giant foxtail ([6]; Rate 125 g/ha, Postemergence): 2
Giant foxtail plant response rating ([6]; Rate 125 g/ha, Preemergence): 6
Plant response rating, Giant foxtail ([6]; Rate 250 g/ha, Postemergence): 3
Plant response rating, Giant foxtail ([6]; Rate 250 g/ha, Preemergence): 6
Plant response rating, Morningglory ([7]; Rate 62 g/ha, Postemergence): 8
Morningglory plant response rating ([7]; Rate 62 g/ha, Preemergence): 2
Plant response rating, Morningglory ([7]; Rate 125 g/ha, Postemergence): 10
Morningglory plant response rating ([7]; Rate 125 g/ha, Preemergence): 4
Plant response rating, Morningglory ([7]; Rate 250 g/ha, Postemergence): 10
Plant response rating, Morningglory ([7]; Rate 250 g/ha, Preemergence): 4
Plant response rating, Redroot pigweed ([8]; Rate 62 g/ha, Postemergence): 9
Redroot pigweed plant response rating ([8]; Rate 62 g/ha, Preemergence): 0
Plant response rating, Redroot pigweed ([8]; Rate 125 g/ha, Postemergence): 10
Redroot pigweed plant response rating ([8]; Rate 125 g/ha, Preemergence): 8
Plant response rating, Redroot pigweed ([8]; Rate 250 g/ha, Postemergence): 10
Plant response rating, Redroot pigweed ([8]; Rate 250 g/ha, Preemergence): 10
Plant response rating, Nutsedge ([9]; Rate 62 g/ha, Postemergence): 0
Nutsedge plant response rating ([9]; Rate 62 g/ha, Preemergence): 0
Plant response rating, Nutsedge ([9]; Rate 125 g/ha, Postemergence): 1
Nutsedge plant response rating ([9]; Rate 125 g/ha, Preemergence): 0
Plant response rating, Nutsedge ([9]; Rate 250 g/ha, Preemergence): 0
Plant response rating, Rape (rape (Brassica napus); Rate 62 g/ha, Postemergence): 8
Rape plant response rating (rape (Brassica napus); Rate 62 g/ha, Preemergence): 0
Plant response rating, Rape (rape (Brassica napus); Rate 125 g/ha, Postemergence): 10
Rape plant response rating (rape (Brassica napus); Rate 125 g/ha, Preemergence): 2
Plant response rating, Rape (rape (Brassica napus); Rate 250 g/ha, Postemergence): 10
Plant response rating, Rape (rape (Brassica napus); Rate 250 g/ha, Preemergence): 4
Plant response rating, Soybean (soybean (Glycine max); Rate 62 g/ha, Postemergence): 3
Soybean plant response rating (soybean (Glycine max); Rate 62 g/ha, Preemergence): 0
Plant response rating, Soybean (soybean (Glycine max); Rate 125 g/ha, Postemergence): 6
Soybean plant response rating (soybean (Glycine max); Rate 125 g/ha, Preemergence): 0
Plant response rating, Soybean (soybean (Glycine max); Rate 250 g/ha, Postemergence): 6
Plant response rating, Soybean (soybean (Glycine max); Rate 250 g/ha, Preemergence): 0
Plant response rating, Sugarbeets ([10]; Rate 62 g/ha, Postemergence): 10
Sugarbeets plant response rating ([10]; Rate 62 g/ha, Preemergence): 2
Plant response rating, Sugarbeets ([10]; Rate 125 g/ha, Postemergence): 10
Sugarbeets plant response rating ([10]; Rate 125 g/ha, Preemergence): 3
Plant response rating, Sugarbeets ([10]; Rate 250 g/ha, Postemergence): 10
Plant response rating, Sugarbeets ([10]; Rate 250 g/ha, Preemergence): 9
Plant response rating, Velvetleaf ([11]; Rate 62 g/ha, Postemergence): 2
Velvetleaf plant response rating ([11]; Rate 62 g/ha, Preemergence): 0
Plant response rating, Velvetleaf ([11]; Rate 125 g/ha, Postemergence): 6
Velvetleaf plant response rating ([11]; Rate 125 g/ha, Preemergence): 1
Plant response rating, Velvetleaf ([11]; Rate 250 g/ha, Postemergence): 7
Plant response rating, Velvetleaf ([11]; Rate 250 g/ha, Preemergence): 2
Plant response rating, Wheat ([12]; Rate 62 g/ha, Postemergence): 2
Wheat plant response rating ([12]; Rate 62 g/ha, Preemergence): 0
Plant response rating, Wheat ([12]; Rate 125 g/ha, Postemergence): 2
Wheat plant response rating ([12]; Rate 125 g/ha, Preemergence): 0
Plant response rating, Wheat ([12]; Rate 250 g/ha, Postemergence): 3
Plant response rating, Wheat ([12]; Rate 250 g/ha, Preemergence): 0
Plant response rating, Wild oats (wild oat (Avena fatua); Rate 62 g/ha, Postemergence): 2
Wild oats plant response rating (wild oat (Avena fatua); Rate 62 g/ha, Preemergence): 0
Plant response rating, Wild oats (wild oat (Avena fatua); Rate 125 g/ha, Postemergence): 3
Wild oats plant response rating (wild oat (Avena fatua); Rate 125 g/ha, Preemergence): 1
Plant response rating, Wild oats (wild oat (Avena fatua); Rate 250 g/ha, Postemergence): 4
Plant response rating, Wild oats (wild oat (Avena fatua); Rate 250 g/ha, Preemergence): 4
Plant response rating, Barnyardgrass [13, 16]: 2
Plant response rating, Barnyardgrass [13, 17]: 3
Plant response rating, Barnyardgrass [13, 18]: 4
Plant response rating, Ducksalad [14, 16]: 0
Plant response rating, Ducksalad [14, 17]: 2
Plant response rating, Ducksalad [14, 18]: 3
Plant response rating, Rice (rice (Oryza sativa); [16]): 1
Plant response rating, Rice (rice (Oryza sativa); [17]): 1
Plant response rating, Rice (rice (Oryza sativa); [18]): 2
Plant response rating, S. Flatsedge [15, 16]: 0
Plant response rating, S. Flatsedge [15, 17]: 1
Plant response rating, S. Flatsedge [15, 18]: 3
